The kinase profiling compilation of Christmann-Franck et al. (2016)

Experiments:
Assay in all cases: radiometric filter-binding kinase assay, Kinase HotSpot
Settings in all cases: compound 0.5 µM; ATP 10 µM
STK4 (human) = STK4 (human) (UniProt Q13043)
BMX (human) = BMX (human) (UniProt P51813)
MAPK1 (human) = MAPK1 (human) (UniProt P28482)
ACVR1 (human) = ACVR1 (human) (UniProt Q04771)
IKBKB (human) = IKBKB (human) (UniProt O14920)
STK16 (human) = STK16 (human) (UniProt O75716)
SIK2 (human) = SIK2 (human) (UniProt Q9H0K1)
Chain of SIK2 (human) (Q9H0K1 whole entry, looked up): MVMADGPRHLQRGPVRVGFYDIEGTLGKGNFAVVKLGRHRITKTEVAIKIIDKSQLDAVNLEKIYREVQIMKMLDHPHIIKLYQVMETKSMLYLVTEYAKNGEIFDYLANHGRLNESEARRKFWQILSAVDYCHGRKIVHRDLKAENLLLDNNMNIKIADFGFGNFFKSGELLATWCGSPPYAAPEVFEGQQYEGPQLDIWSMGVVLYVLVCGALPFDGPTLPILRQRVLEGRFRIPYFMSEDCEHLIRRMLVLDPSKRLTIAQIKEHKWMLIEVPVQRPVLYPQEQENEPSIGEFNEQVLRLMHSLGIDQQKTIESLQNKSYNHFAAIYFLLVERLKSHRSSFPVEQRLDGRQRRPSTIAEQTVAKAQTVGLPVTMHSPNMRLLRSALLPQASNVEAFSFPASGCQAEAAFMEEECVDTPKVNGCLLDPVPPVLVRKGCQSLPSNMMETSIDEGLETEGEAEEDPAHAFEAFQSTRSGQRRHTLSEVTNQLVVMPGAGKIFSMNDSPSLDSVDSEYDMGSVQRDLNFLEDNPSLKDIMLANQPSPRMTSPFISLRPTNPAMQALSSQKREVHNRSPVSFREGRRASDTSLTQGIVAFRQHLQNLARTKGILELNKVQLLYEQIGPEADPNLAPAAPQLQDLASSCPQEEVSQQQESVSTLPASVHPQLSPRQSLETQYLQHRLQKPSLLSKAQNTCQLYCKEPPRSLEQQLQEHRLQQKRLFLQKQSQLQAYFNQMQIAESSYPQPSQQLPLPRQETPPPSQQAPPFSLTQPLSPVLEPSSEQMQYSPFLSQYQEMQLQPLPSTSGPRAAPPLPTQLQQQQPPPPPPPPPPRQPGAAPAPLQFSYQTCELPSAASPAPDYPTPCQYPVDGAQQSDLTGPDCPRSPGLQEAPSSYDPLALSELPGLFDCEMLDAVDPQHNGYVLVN

MYLK2 (human) = MYLK2 (human) (UniProt Q9H1R3)
PDGFRB (human) = PDGFRB (human) (UniProt P09619)
DMPK (human) = DMPK (human) (UniProt Q09013)
YES1 (human) = YES1 (human) (UniProt P07947)
DCLK2 (human) = DCLK2 (human) (UniProt Q8N568)
Chain of DCLK2 (human) (Q8N568 whole entry, looked up): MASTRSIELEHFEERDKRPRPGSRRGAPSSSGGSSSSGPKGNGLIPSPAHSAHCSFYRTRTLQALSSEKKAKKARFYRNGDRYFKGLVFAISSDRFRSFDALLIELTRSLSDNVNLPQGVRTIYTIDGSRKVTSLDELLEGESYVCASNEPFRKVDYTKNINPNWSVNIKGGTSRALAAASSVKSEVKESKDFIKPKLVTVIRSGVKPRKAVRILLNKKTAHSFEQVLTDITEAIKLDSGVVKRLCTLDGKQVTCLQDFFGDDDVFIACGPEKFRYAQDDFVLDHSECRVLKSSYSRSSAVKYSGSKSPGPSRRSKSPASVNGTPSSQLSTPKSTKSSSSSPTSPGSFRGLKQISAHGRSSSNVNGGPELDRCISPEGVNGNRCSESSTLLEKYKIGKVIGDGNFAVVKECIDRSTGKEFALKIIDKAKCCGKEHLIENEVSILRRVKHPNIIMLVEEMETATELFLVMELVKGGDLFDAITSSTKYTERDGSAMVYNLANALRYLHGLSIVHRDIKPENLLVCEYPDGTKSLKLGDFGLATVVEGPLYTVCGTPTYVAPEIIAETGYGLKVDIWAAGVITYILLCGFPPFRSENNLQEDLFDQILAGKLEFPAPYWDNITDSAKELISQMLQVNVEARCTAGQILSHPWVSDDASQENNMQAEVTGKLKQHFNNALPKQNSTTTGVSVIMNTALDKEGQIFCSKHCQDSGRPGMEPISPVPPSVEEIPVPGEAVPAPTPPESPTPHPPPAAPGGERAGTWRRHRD

HIPK3 (human) = HIPK3 (human) (UniProt Q9H422)
PRKD3 (human) = PRKD3 (human) (UniProt O94806)
PRKD2 (human) = PRKD2 (human) (UniProt Q9BZL6)
ADRBK1 (human) = ADRBK1 (human) (UniProt P25098)
MARK4 (human) = MARK4 (human) (UniProt Q96L34)
CDK9 CCNK (human) = CDK9 CCNK (human) (UniProt O75909+P50750)
ABL2 (human) = ABL2 (human) (UniProt P42684)
PKN2 (human) = PKN2 (human) (UniProt Q16513)
CSNK1G3 (human) = CSNK1G3 (human) (UniProt Q9Y6M4)
[1] = tested on: MKNK1 (human), Q9BUB5 [T385D; 165-205 del]
Chain of MKNK1 (human), Q9BUB5 [T385D; 165-205 del] (Q9BUB5 whole entry, looked up, stated change not applied): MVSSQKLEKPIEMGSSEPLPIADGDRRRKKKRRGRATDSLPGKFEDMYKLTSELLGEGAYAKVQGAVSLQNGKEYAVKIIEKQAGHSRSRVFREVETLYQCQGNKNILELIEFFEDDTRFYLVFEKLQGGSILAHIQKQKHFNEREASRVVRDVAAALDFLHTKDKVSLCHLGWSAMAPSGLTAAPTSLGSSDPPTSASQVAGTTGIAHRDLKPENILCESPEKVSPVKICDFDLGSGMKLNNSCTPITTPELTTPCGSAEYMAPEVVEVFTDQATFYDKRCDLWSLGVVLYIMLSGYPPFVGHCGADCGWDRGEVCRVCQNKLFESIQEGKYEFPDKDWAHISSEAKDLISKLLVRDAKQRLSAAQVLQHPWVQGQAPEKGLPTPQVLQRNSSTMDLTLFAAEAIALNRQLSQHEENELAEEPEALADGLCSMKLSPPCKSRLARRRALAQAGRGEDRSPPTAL

FER (human) = FER (human) (UniProt P16591)
EPHB1 (human) = EPHB1 (human) (UniProt P54762)
Chain of EPHB1 (human) (P54762 whole entry, looked up): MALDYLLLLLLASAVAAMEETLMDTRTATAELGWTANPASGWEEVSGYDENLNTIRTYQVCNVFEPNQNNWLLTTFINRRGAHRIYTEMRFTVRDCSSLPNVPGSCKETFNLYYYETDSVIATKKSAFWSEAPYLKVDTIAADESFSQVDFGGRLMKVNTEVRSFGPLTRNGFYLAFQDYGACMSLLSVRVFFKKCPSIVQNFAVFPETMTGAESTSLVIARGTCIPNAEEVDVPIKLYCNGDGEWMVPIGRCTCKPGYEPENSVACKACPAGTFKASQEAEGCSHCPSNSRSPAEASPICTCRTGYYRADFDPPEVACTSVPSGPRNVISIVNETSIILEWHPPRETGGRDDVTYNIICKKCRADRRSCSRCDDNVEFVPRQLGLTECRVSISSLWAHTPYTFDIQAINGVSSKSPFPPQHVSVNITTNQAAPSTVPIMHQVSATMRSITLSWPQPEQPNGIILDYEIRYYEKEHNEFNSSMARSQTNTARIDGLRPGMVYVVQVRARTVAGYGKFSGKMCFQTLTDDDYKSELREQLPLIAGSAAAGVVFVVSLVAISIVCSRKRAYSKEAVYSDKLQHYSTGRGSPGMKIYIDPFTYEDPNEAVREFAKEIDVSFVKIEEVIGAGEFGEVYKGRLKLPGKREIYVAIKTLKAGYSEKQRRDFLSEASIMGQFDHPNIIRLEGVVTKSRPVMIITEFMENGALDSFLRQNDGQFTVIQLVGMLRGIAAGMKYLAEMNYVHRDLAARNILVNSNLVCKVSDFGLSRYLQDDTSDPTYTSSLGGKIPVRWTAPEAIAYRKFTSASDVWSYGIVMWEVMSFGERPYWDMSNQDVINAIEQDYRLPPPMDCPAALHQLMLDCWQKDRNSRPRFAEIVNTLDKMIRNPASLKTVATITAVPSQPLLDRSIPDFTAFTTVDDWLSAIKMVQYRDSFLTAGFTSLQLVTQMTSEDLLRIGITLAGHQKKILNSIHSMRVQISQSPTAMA

EPHA7 (human) = EPHA7 (human) (UniProt Q15375)
NEK3 (human) = NEK3 (human) (UniProt P51956)
MAP3K9 (human) = MAP3K9 (human) (UniProt P80192)
SGK3 (human) = SGK3 (human) (UniProt Q96BR1)
BRSK1 (human) = BRSK1 (human) (UniProt Q8TDC3)
OXSR1 (human) = OXSR1 (human) (UniProt O95747)
SRPK3 (human) = SRPK3 (human) (UniProt Q9UPE1)
CDK5 CDK5R1 p35 (human) = CDK5 CDK5R1 p35 (human) (UniProt Q00535+Q15078)
CDK5 CDK5R1 p25 (human) = CDK5 CDK5R1 p25 (human) (UniProt Q00535+Q15078)
EPHB3 (human) = EPHB3 (human) (UniProt P54753)
DYRK1B (human) = DYRK1B (human) (UniProt Q9Y463)
AURKA (human) = AURKA (human) (UniProt O14965)
STK17A (human) = STK17A (human) (UniProt Q9UEE5)
Chain of STK17A (human) (Q9UEE5 whole entry, looked up): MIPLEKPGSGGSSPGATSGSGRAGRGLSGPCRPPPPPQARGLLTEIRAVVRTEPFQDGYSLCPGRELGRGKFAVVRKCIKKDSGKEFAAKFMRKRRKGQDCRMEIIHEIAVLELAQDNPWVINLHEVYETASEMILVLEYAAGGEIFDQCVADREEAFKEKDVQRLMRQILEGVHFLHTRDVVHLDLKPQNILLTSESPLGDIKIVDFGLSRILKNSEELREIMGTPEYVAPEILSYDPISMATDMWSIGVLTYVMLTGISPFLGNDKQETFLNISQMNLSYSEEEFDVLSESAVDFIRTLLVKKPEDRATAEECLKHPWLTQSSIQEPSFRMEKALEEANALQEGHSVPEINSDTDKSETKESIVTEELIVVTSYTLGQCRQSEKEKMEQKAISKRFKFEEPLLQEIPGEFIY

CLK1 (human) = CLK1 (human) (UniProt P49759)
MET (human) = MET (human) (UniProt P08581)
Chain of MET (human) (P08581 whole entry, looked up): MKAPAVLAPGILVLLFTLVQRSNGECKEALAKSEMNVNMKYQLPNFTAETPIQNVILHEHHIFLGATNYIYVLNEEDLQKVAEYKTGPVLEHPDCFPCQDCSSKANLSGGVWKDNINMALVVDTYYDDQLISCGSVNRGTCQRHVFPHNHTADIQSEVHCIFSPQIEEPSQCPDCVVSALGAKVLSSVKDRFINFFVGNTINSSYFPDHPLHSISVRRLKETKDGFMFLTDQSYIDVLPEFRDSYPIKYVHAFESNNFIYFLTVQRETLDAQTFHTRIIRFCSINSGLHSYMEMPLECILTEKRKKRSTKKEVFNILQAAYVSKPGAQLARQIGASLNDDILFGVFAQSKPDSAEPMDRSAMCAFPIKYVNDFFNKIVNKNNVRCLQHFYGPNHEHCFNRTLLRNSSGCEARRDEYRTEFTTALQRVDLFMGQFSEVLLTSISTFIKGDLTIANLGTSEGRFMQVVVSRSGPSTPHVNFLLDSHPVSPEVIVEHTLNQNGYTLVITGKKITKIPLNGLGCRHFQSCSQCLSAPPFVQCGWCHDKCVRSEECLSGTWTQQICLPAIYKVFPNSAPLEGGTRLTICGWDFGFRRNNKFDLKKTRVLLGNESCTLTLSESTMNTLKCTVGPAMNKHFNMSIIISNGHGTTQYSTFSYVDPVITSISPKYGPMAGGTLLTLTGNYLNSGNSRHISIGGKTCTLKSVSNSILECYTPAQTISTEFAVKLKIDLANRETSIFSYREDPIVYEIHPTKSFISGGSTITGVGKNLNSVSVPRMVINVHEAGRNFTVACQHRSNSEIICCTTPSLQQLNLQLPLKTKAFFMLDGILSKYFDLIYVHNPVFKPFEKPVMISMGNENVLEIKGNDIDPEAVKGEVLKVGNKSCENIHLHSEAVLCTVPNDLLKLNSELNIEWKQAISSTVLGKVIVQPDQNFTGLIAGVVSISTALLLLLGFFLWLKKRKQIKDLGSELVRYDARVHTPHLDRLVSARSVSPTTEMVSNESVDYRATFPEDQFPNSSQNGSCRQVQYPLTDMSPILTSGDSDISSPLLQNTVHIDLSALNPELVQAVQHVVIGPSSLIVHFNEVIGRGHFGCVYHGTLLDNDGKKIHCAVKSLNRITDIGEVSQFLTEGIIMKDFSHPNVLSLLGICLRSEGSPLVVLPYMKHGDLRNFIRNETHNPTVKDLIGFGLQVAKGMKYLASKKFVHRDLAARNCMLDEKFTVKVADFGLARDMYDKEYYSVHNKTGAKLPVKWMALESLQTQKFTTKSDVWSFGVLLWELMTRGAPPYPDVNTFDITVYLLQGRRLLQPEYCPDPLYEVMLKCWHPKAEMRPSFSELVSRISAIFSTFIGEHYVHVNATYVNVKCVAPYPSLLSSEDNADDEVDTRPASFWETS

NEK11 (human) = NEK11 (human) (UniProt Q8NG66)
INSR (human) = INSR (human) (UniProt P06213)
MAPK11 (human) = MAPK11 (human) (UniProt Q15759)

In the case of `COc1ccc2c(c1)c(C1=C(c3c[nH]c4ccccc34)C(=O)NC1=O)cn2CCCN(C)C`, the residual activity (STK4 (human)) is reported as 65.2%, the residual activity (BMX (human)) is reported as 96.3% and the residual activity (MAPK1 (human)) is reported as 102%. The residual activity (ACVR1 (human)) was 98%, the residual activity (IKBKB (human)) was 99.6% and the residual activity (STK16 (human)) was 93.1%. The residual activity (SIK2 (human)) was 103%, the residual activity (MYLK2 (human)) was 96% and the residual activity (PDGFRB (human)) was 75.8%. It also gave a residual activity (DMPK (human)) of 97.7%, a residual activity (YES1 (human)) of 90.4% and a residual activity (DCLK2 (human)) of 84.8%. For the same molecule, the residual activity (HIPK3 (human)) was 74.1%, the residual activity (PRKD3 (human)) was 91.9% and the residual activity (PRKD2 (human)) was 92.3%. The residual activity (ADRBK1 (human)) was 99%, the residual activity (MARK4 (human)) was 95.9% and the residual activity (CDK9 CCNK (human)) was 54.6%. It also gave a residual activity (ABL2 (human)) of 77.7%, a residual activity (PKN2 (human)) of 95% and a residual activity (CSNK1G3 (human)) of 77.8%. For the same molecule, the residual activity [1] was 92.8%, the residual activity (FER (human)) was 70.9% and the residual activity (EPHB1 (human)) was 91.7%. It also gave a residual activity (EPHA7 (human)) of 88.8%, a residual activity (NEK3 (human)) of 98.3% and a residual activity (MAP3K9 (human)) of 57.6%. For the same molecule, the residual activity (SGK3 (human)) was 101%, the residual activity (BRSK1 (human)) was 81.9% and the residual activity (OXSR1 (human)) was 97.7%. It also gave a residual activity (SRPK3 (human)) of 89.5%, a residual activity (CDK5 CDK5R1 p35 (human)) of 81.4% and a residual activity (CDK5 CDK5R1 p25 (human)) of 114%. For the same molecule, the residual activity (EPHB3 (human)) was 97%, the residual activity (DYRK1B (human)) was 80% and the residual activity (AURKA (human)) was 86.6%. The residual activity (STK17A (human)) was 84%, the residual activity (CLK1 (human)) was 48.2% and the residual activity (MET (human)) was 85.6%. For the same molecule, the residual activity (NEK11 (human)) was 91.6%, the residual activity (INSR (human)) was 94.1% and the residual activity (MAPK11 (human)) was 96.7%.
`CN(C)CCCn1cc(C2=C(c3c[nH]c4ccccc34)C(=O)NC2=O)c2ccccc21` was tested, and the residual activity (STK4 (human)) was 25.1%, the residual activity (BMX (human)) was 101% and the residual activity (MAPK1 (human)) was 100%. It also gave a residual activity (ACVR1 (human)) of 96.3%, a residual activity (IKBKB (human)) of 119% and a residual activity (STK16 (human)) of 80.8%. It also gave a residual activity (SIK2 (human)) of 94.7%, a residual activity (MYLK2 (human)) of 73.9% and a residual activity (PDGFRB (human)) of 78.1%. For the same molecule, the residual activity (DMPK (human)) was 94.7%, the residual activity (YES1 (human)) was 84.6% and the residual activity (DCLK2 (human)) was 95%. For the same molecule, the residual activity (HIPK3 (human)) was 102%, the residual activity (PRKD3 (human)) was 54.6% and the residual activity (PRKD2 (human)) was 78.8%. It also gave a residual activity (ADRBK1 (human)) of 96.5%, a residual activity (MARK4 (human)) of 66.9% and a residual activity (CDK9 CCNK (human)) of 60.3%. It also gave a residual activity (ABL2 (human)) of 96.3%, a residual activity (PKN2 (human)) of 72.1% and a residual activity (CSNK1G3 (human)) of 96.9%. The residual activity [1] was 81.2%, the residual activity (FER (human)) was 69.8% and the residual activity (EPHB1 (human)) was 87.4%. It also gave a residual activity (EPHA7 (human)) of 97%, a residual activity (NEK3 (human)) of 110% and a residual activity (MAP3K9 (human)) of 46%. For the same molecule, the residual activity (SGK3 (human)) was 72.8%, the residual activity (BRSK1 (human)) was 76.9% and the residual activity (OXSR1 (human)) was 97.4%. The residual activity (SRPK3 (human)) was 86.9%, the residual activity (CDK5 CDK5R1 p35 (human)) was 90% and the residual activity (CDK5 CDK5R1 p25 (human)) was 80.2%. For the same molecule, the residual activity (EPHB3 (human)) was 95.2%, the residual activity (DYRK1B (human)) was 76% and the residual activity (AURKA (human)) was 108%. For the same molecule, the residual activity (STK17A (human)) was 86.9%, the residual activity (CLK1 (human)) was 60.3% and the residual activity (MET (human)) was 102%. For the same molecule, the residual activity (NEK11 (human)) was 104%, the residual activity (INSR (human)) was 88.9% and the residual activity (MAPK11 (human)) was 96.1%.
For `CCCCc1c(-c2ccc(OC)cc2)[nH]c2nccnc12`, the residual activity (STK4 (human)) was 82.2%, the residual activity (BMX (human)) was 82.2% and the residual activity (MAPK1 (human)) was 103%. The residual activity (ACVR1 (human)) was 86.9%, the residual activity (IKBKB (human)) was 102% and the residual activity (STK16 (human)) was 58.7%. It also gave a residual activity (SIK2 (human)) of 98.4%, a residual activity (MYLK2 (human)) of 102% and a residual activity (PDGFRB (human)) of 95.9%. It also gave a residual activity (DMPK (human)) of 84.3%, a residual activity (YES1 (human)) of 45.7% and a residual activity (DCLK2 (human)) of 101%. It also gave a residual activity (HIPK3 (human)) of 99.9%, a residual activity (PRKD3 (human)) of 88.5% and a residual activity (PRKD2 (human)) of 101%. For the same molecule, the residual activity (ADRBK1 (human)) was 78.5%, the residual activity (MARK4 (human)) was 88.3% and the residual activity (CDK9 CCNK (human)) was 56.9%. The residual activity (ABL2 (human)) was 70.5%, the residual activity (PKN2 (human)) was 88.6% and the residual activity (CSNK1G3 (human)) was 89.2%. It also gave a residual activity [1] of 97.7%, a residual activity (FER (human)) of 59.8% and a residual activity (EPHB1 (human)) of 76%. For the same molecule, the residual activity (EPHA7 (human)) was 98%, the residual activity (NEK3 (human)) was 99.1% and the residual activity (MAP3K9 (human)) was 39.8%. The residual activity (SGK3 (human)) was 98.6%, the residual activity (BRSK1 (human)) was 89.1% and the residual activity (OXSR1 (human)) was 102%. For the same molecule, the residual activity (SRPK3 (human)) was 97.9%, the residual activity (CDK5 CDK5R1 p35 (human)) was 48.3% and the residual activity (CDK5 CDK5R1 p25 (human)) was 41.3%. It also gave a residual activity (EPHB3 (human)) of 99.8%, a residual activity (DYRK1B (human)) of 94.5% and a residual activity (AURKA (human)) of 25.5%. For the same molecule, the residual activity (STK17A (human)) was 95.5%, the residual activity (CLK1 (human)) was 102% and the residual activity (MET (human)) was 86.8%. The residual activity (NEK11 (human)) was 93.6%, the residual activity (INSR (human)) was 97.6% and the residual activity (MAPK11 (human)) was 100%.
`O=C1c2ccccc2-c2nc3nnnn3nc21` was tested, and the residual activity (STK4 (human)) was 87.8%, the residual activity (BMX (human)) was 79% and the residual activity (MAPK1 (human)) was 87.5%. For the same molecule, the residual activity (ACVR1 (human)) was 93.1%, the residual activity (IKBKB (human)) was 73.4% and the residual activity (STK16 (human)) was 80.5%. For the same molecule, the residual activity (SIK2 (human)) was 106%, the residual activity (MYLK2 (human)) was 88.1% and the residual activity (PDGFRB (human)) was 11.3%. For the same molecule, the residual activity (DMPK (human)) was 84.8%, the residual activity (YES1 (human)) was 89.1% and the residual activity (DCLK2 (human)) was 86.5%. For the same molecule, the residual activity (HIPK3 (human)) was 101%, the residual activity (PRKD3 (human)) was 83.4% and the residual activity (PRKD2 (human)) was 91.7%. It also gave a residual activity (ADRBK1 (human)) of 106%, a residual activity (MARK4 (human)) of 88.1% and a residual activity (CDK9 CCNK (human)) of 74.4%. It also gave a residual activity (ABL2 (human)) of 89.7%, a residual activity (PKN2 (human)) of 77.1% and a residual activity (CSNK1G3 (human)) of 80.3%. The residual activity [1] was 79.3%, the residual activity (FER (human)) was 89.1% and the residual activity (EPHB1 (human)) was 89.5%. For the same molecule, the residual activity (EPHA7 (human)) was 81.9%, the residual activity (NEK3 (human)) was 111% and the residual activity (MAP3K9 (human)) was 63.3%. It also gave a residual activity (SGK3 (human)) of 90.4%, a residual activity (BRSK1 (human)) of 84.8% and a residual activity (OXSR1 (human)) of 83%. It also gave a residual activity (SRPK3 (human)) of 89.4%, a residual activity (CDK5 CDK5R1 p35 (human)) of 79.1% and a residual activity (CDK5 CDK5R1 p25 (human)) of 46.4%. The residual activity (EPHB3 (human)) was 90.2%, the residual activity (DYRK1B (human)) was 81% and the residual activity (AURKA (human)) was 71.4%. It also gave a residual activity (STK17A (human)) of 83.8%, a residual activity (CLK1 (human)) of 79.4% and a residual activity (MET (human)) of 83.3%. It also gave a residual activity (NEK11 (human)) of 88%, a residual activity (INSR (human)) of 32.3% and a residual activity (MAPK11 (human)) of 101%.
